By IC50 is commonly meant the concentration needed to halve the response being measured. In general, ED50 refers to the midpoint of the dose-response relation. A high value points to a need for a large dose. By half-life is commonly meant the time needed for the level to fall by half in the phase considered. A higher half-life goes with slow loss. Usually inhibition in vivo stands for the percentage by which the read-out fell short of the control. Low values mean a weak effect, high ones a strong effect.

Data set [1] addresses T1, Interstitial collagenase (Homo sapiens, UniProt P03956).
T1 sequence (P03956 whole entry): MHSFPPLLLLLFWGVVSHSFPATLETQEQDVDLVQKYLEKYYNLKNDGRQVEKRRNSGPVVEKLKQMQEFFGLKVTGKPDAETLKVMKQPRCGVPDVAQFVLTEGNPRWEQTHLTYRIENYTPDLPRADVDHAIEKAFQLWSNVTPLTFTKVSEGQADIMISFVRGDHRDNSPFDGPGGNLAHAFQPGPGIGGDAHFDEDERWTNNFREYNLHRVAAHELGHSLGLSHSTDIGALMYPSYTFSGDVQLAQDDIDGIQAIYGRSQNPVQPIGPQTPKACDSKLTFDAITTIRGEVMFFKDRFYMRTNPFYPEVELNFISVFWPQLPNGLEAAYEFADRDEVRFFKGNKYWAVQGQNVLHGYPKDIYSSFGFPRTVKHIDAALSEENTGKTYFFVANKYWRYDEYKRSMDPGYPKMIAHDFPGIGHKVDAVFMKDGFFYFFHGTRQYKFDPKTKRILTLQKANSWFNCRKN
The data set can be described thus: In vitro inhibition of matrix metalloprotease-1.

Data set [2] addresses T2, Disintegrin and metalloproteinase domain-containing protein 17 (Homo sapiens, UniProt P78536). The data set can be described thus: Inhibition of human recombinant tumor necrosis factor-alpha converting enzyme.
Data set [3] concerns the target T2, Disintegrin and metalloproteinase domain-containing protein 17. The experiment in a line: Inhibition of Tumor necrosis factor-alpha (TNF-alpha) release in human whole blood. Type of data set: functional, tissue-based.
Data set [4] addresses Collagenase 3 (Homo sapiens, UniProt P45452). The data set can be described thus: In vitro inhibition of matrix metalloprotease-13.
For data set [5], the species on record is Rattus norvegicus. The data set can be described thus: Concentration required for TNF-alpha production in an acute rat LPS-induced model. Type of data set: functional.
Data set [6] in a line: Half life in rat i.v. It is filed as ADME, organism-based. The conditions noted are these: in vivo, iv.
Data set [7] in a line: (§1) Pharmacokinetic property (Clp) in rat. The conditions noted are these: plasma, read-out: Clp. Type of data set: ADME, organism-based.
A short description of data set [8]: Pharmacokinetic property (Vdss) in rat. Type of data set: ADME, organism-based. The conditions noted are these: in vivo, read-out: Vdss.
The test system of data set [9] is Rattus norvegicus. The experiment in a line: Inhibition of TNF-alpha production in an acute rat LPS-induced model at the dose of 30 mg/kg. It is filed as functional.
Data set [10] is described as follows: Half in rat i.v. Type of data set: ADME, organism-based. To be noted: in vivo, iv.
The species named for data set [11] is Rattus norvegicus. Described as §1. Type of data set: ADME, organism-based. To be noted: in vivo.

T2 sequence (P78536 whole entry, the tested form may be a part): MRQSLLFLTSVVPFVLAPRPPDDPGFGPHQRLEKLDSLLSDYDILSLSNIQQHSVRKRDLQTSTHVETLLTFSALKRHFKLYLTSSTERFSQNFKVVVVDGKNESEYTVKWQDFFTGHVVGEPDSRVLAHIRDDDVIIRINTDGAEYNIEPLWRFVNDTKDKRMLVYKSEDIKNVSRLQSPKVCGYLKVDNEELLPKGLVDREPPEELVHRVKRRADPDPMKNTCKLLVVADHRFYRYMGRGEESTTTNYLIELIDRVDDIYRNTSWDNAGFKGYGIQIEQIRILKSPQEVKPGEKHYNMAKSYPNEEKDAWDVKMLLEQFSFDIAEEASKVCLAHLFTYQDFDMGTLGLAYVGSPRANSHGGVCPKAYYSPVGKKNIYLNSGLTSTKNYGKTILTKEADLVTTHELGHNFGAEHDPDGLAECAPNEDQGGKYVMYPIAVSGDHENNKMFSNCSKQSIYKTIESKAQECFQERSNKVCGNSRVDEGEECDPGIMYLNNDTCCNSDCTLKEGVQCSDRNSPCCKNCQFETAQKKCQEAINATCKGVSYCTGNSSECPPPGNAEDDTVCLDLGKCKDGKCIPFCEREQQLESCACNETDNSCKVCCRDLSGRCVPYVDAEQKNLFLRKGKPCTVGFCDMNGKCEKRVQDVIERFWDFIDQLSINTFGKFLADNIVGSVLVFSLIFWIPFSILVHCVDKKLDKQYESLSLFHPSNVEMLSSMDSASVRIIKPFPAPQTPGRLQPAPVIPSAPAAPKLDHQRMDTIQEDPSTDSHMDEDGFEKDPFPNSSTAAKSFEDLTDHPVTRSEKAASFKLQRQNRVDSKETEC

`COC(=O)N1CCN(S(=O)(=O)c2ccc(OCc3ccccc3C)cc2)[C@@H](C(=O)NO)[C@@H]1C`: the IC50 in data set [1] came out at 1500 nM; in [2] it was 14 nM; in data set [3], 2000 nM; in data set [4], 4 nM.
Turning to `C#CCOc1ccc(S(=O)(=O)N(C)c2c(C)cc(Br)cc2C(=O)NO)cc1`, the half-inhibitory concentration (IC50) in data set [1] amounted to 52 nM; in data set [4], 113 nM.
As for `CC(=O)N1CCN(S(=O)(=O)c2ccc(OCc3ccnc4ccccc34)cc2)[C@@H](C(=O)NO)[C@@H]1C`, the IC50 came out at 830 nM in data set [1], 300 nM in data set [3] and 17 nM in data set [4].
As for `Cc1ccccc1COc1ccc(S(=O)(=O)N2CCN(C(=O)Nc3ccccc3)[C@@H](C)[C@@H]2C(=O)NO)cc1`, the IC50 in [1] was determined as 2200 nM; in [2], 26 nM; in data set [3] it was 12000 nM.
The matching figures for `Cc1ccccc1COc1ccc(S(=O)(=O)N2CCN(Cc3ccccc3)[C@@H](C)[C@@H]2C(=O)NO)cc1`: 17000 nM, 68 nM and 33000 nM.
With `CC(=O)N1CCN(S(=O)(=O)c2ccc(OCc3cc(F)ccc3C)cc2)[C@@H](C(=O)NO)[C@@H]1C`, the 50% inhibitory concentration (IC50) in [1] came out at 1900 nM; in data set [2], 7 nM; in [3] it was 1000 nM; in data set [4], 7 nM.
In the case of `Cc1ccccc1COc1ccc(S(=O)(=O)N2CCN(C(=O)NC(C)C)[C@@H](C)[C@@H]2C(=O)NO)cc1`, the half-inhibitory concentration (IC50) in [1] came out at 1400 nM; in data set [2] it was 34 nM; in [3], 3000 nM; in data set [4], 4 nM.
Consider `CC(=O)N1CCN(S(=O)(=O)c2ccc(OCc3ccccc3C)cc2)[C@@H](C(=O)NO)[C@@H]1C`, for which it took a dose of 17 mg/kg to reach the 50% effect level in data set [5] (ED50). The half-life in [6] was 16.2 min. In addition, the half-maximal inhibitory concentration (IC50) in data set [2] amounted to 6 nM; in data set [3], 1000 nM. Moreover, in data set [7], the clearance stood at 54 mL/min/kg. Besides, the Vd in data set [8] came to 0.6 L/kg.
Take `CCOC(=O)N1CCN(S(=O)(=O)c2ccc(OCc3ccccc3C)cc2)[C@@H](C(=O)NO)[C@@H]1C`: the IC50 is 1500 nM in data set [1], 28 nM in [2], 3000 nM in data set [3] and 6 nM in [4].
For `CC(=O)N1CCN(S(=O)(=O)c2ccc(OCc3cccnc3C)cc2)[C@@H](C(=O)NO)[C@@H]1C`, the half-inhibitory concentration (IC50) was 3400 nM in data set [1], 5 nM in data set [2], 800 nM in data set [3] and 8 nM in data set [4].
In data set [9], `Cc1ccccc1COc1ccc(S(=O)(=O)N2CCN(S(C)(=O)=O)[C@@H](C)[C@@H]2C(=O)NO)cc1` had an inhibition in vivo at 30 mg/kg of 55%. The 50% inhibitory concentration (IC50) in data set [1] is 1300 nM; in [2] it was 6 nM; in [3] it was 1000 nM; in data set [4] it was 4 nM. The molecule also showed a half-life in data set [10] of 12.6 min. The molecule further yielded a Clp in [11] of 98 mL/min/kg. Besides, the Vd in [8] was found to be 2.1 L/kg.
Consider `CC(=O)N1CCN(S(=O)(=O)c2ccc(OCc3cc(F)cc(F)c3)cc2)[C@@H](C(=O)NO)[C@@H]1C`, for which the IC50 worked out at 3800 nM in [1], 6 nM in data set [2], 1000 nM in data set [3] and 20 nM in data set [4].
Regarding `Cc1ccccc1COc1ccc(S(=O)(=O)N2CCN[C@@H](C)[C@@H]2C(=O)NO)cc1`, in [9], 30 mg/kg produced 39% inhibition in vivo. In addition, the half-inhibitory concentration (IC50) in data set [1] is 12000 nM; in data set [3], 2000 nM; in [4] it was 19 nM. The molecule also gave a half-life in data set [6] of 14.4 min. Besides, the clearance in data set [7] was determined as 83 mL/min/kg. The Vd in data set [8] came out at 1.1 L/kg.
With `CC[C@H](C)[C@H](NC(=O)C(CC(C)C)[C@H](C(C)C)N(O)C=O)C(=O)Nc1ccccn1` (stereo partly specified), the IC50 in data set [1] was determined as 19 nM; in data set [2], 40 nM; in data set [4], 7 nM.
Turning to `CC(=O)N1CCN(S(=O)(=O)c2ccc(OCc3cncc4ccccc34)cc2)[C@@H](C(=O)NO)[C@@H]1C`, the IC50 worked out at 6400 nM in data set [1], 400 nM in data set [3] and 98 nM in [4].
For the molecule `CC(=O)N1CCN(S(=O)(=O)c2ccc(OCc3ccccc3C(F)(F)F)cc2)[C@@H](C(=O)NO)[C@@H]1C`, the IC50 in data set [1] worked out at 10000 nM; in [2], 11 nM; in data set [3], 2000 nM; in data set [4] it was 127 nM.
In the same order, the values of `CC(=O)N1CCN(S(=O)(=O)c2ccc(OCc3ccc(F)cc3)cc2)[C@@H](C(=O)NO)[C@@H]1C` are 1700 nM, 6 nM, 2000 nM and 3 nM.
Regarding `Cc1ccccc1COc1ccc(S(=O)(=O)N2CCN(C)[C@@H](C)[C@@H]2C(=O)NO)cc1`, the half-inhibitory concentration (IC50) in data set [2] was determined as 31 nM; in data set [3], 33000 nM.
As for `Cc1ccc(S(=O)(=O)N2CCN(S(=O)(=O)c3ccc(OCc4ccccc4C)cc3)[C@@H](C(=O)NO)[C@@H]2C)cc1`, the half-maximal inhibitory concentration (IC50) in data set [2] amounted to 32 nM; in data set [3], 26000 nM.
Consider `CCc1ccccc1COc1ccc(S(=O)(=O)N2CCN(C(C)=O)[C@@H](C)[C@@H]2C(=O)NO)cc1`, for which the IC50 worked out at 6700 nM in [1], 7 nM in data set [2], 600 nM in [3] and 40 nM in data set [4].
In the case of `C[C@@H]1NCCN(S(=O)(=O)c2ccc(OCc3ccccc3)cc2)[C@H]1C(=O)NO`, the values for the IC50 in data set [1], in [3] and in [4] were 12000 nM, 18000 nM and 11 nM, respectively.

Source of the values: ChEMBL document CHEMBL1136235, “Synthesis and biological activity of piperazine-based dual MMP-13 and TNF-alpha converting enzyme inhibitors” (Bioorg Med Chem Lett, 2003).
